Experimental data taken from patent US12617777B2, “GPR84 antagonists and uses thereof” (Liminal BioSciences Limited, priority 2021, dated 2026).
pIC50: −log10 of the molar value.

What was measured:
human GPR84 receptor = molecular target: T1, human GPR84 receptor (Homo sapiens, UniProt Q9NQS5); test: Gαi biosensor BRET assay in HEK293 cells (antagonism of ZQ-16); format: cell-based; conditions: for pIC50: HEK293 cells, antagonism of 200 nmol/L ZQ-16; for inhibition at 10 µM: HEK293, single concentration 10 μM (designated F); for inhibition at 2 µM: HEK293, single concentration 2 μM (designated A)
T1 construct: host or cells: HEK293, transient transfection
Method in brief: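 Antagonist mode: test compound 5 min at 37° C, followed by ZQ-16 agonist (200 nmol/L, 5 min, room temperature), in HEK293 cells transfected with GPR84 plus Rluc8-tagged Gαi2, GFP10-Gγ2 and Gβ1. Readout as GFP10/Rluc8 emission ratio after 5 μmol/L coelenterazine 400A, net of Rluc8-only and vehicle signal.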

neutrophils = test: Neutrophil migration assay (embelin as chemotactic agent, ATPlite readout); format: cell-based; conditions: for pIC50: Neutrophil, human neutrophils, embelin as chemotactic agent, read-out: Human Neutrophil migration inhibition IC50; for Human Neutrophil migration inhibition - fold potency to Control Compound: normalized to GPR84 antagonist Control Compound (average IC50 131 nM)
Experimental: Neutrophil migration assay. After isolation, neutrophils were resuspended in chemotaxis buffer (DMEM supplemented with 10 mM HEPES) at a concentration of 8.9×10^6 cells/ml. In a 96-well plate, 20 μl of compound solution in chemotaxis buffer is added to 180 μl of cell suspension. After incubation at 37° C. for 30 minutes, 75 μl of cell suspension is transferred in the upper chamber of a 5 μm pore size Corning HTS transwell. 235 μl of chemotaxis buffer containing the chemotactic agent (embelin) is added to the lower chamber of the transwell. After a 60-minute incubation time at 37° C. in 5%0 C02, the upper chamber of the transwell is removed and the plate is centrifuged at 1500 rpm for 6 minutes. Supermatant is removed and cells resuspended in 100 ul of PBS. ATP content was assessed using ATPlite Luminescence Assay System® according to manufacturer instructions (Perkin Elmer, Buckinghamshire, UK). Briefly, 50 μl of ATPlite buffer and 50 μl of lysis solution is added to the lower chamber of the Transwells. After incubation at room temperature, in the dark with constant agitation for 5 minutes, 150 μl of cell lysate is transferred in a 96 wells white plate and incubated for 10 minutes in the dark. Luminescence is read on a TECAN plate reader, Infinite M1000 (Tecan, Morrisville, NC).
The compound numbers correspond to the compound numbers in Table 1. […] Normalization of the results takes the donor's variation into account.

T1 sequence (Q9NQS5 whole entry): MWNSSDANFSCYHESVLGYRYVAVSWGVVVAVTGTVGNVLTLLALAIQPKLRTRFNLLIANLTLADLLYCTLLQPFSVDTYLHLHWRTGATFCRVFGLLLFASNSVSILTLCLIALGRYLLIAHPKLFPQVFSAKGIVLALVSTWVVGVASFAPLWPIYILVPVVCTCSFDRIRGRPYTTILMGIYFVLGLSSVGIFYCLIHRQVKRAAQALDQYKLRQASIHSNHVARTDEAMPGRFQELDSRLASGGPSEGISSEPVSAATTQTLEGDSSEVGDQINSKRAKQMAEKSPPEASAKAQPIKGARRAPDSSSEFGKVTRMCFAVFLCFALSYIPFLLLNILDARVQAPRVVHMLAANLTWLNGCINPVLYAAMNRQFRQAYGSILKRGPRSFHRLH

SMILES	pIC50 (human GPR84 receptor)	pIC50 (neutrophils)	Human Neutrophil migration inhibition - fold potency to Control Compound (neutrophils)	inhibition at 10 µM (human GPR84 receptor) [%]	inhibition at 25 µM (human GPR84 receptor; HEK293, single concentration 25 μM (designated I)) [%]	inhibition at 2 µM (human GPR84 receptor) [%]
CC(C)Oc1cc(C#CC2CC2)ccc1-c1cn(CC2CCCCO2)nn1 (centres unmarked) [Compound I-187]	< 5.52	≥ 6.52	B (IC50 of >0.5-≤1.0-fold relative to Control Compound)			
CN(C)c1cc(C#CCNc2ccccc2)ccc1-c1cn(CC2CC(C)(C)CO2)nn1 (centres unmarked) [Compound I-460]	6.00 to 6.52	≥ 6.52	A (IC50 of >1.0-fold relative to Control Compound)	> 75		
Cc1cc(N2CC(C)(N(C)Cc3ccccn3)C2)ccc1-c1cn(CC2CCCCO2)nn1 (centres unmarked) [Compound I-451]	6.00 to 6.52	≥ 6.52	A (IC50 of >1.0-fold relative to Control Compound)	> 75		
Cc1cc(C#CC2CC2)cnc1-c1cn(C[C@H]2CCCCO2)nn1 [Compound I-245]	5.52 to 6.00	6.00 to 6.52	C (IC50≤0.5-fold relative to Control Compound)	> 75		
CCc1cc(N2CC(C)(C)C2)ccc1-c1cn(CC2OCC(C)(C)CO2)nn1 [Compound I-618]	≥ 6.52	≥ 6.52	A (IC50 of >1.0-fold relative to Control Compound)	> 75		
Cc1cc(N2CC(C)(OCc3ccccn3)C2)ccc1-c1cn(CC2CCCCO2)nn1 (centres unmarked) [Compound I-452]	6.00 to 6.52	≥ 6.52	A (IC50 of >1.0-fold relative to Control Compound)	> 75		
Cc1cc(C#CCNc2ccccc2)ccc1-c1cn(C[C@H]2CCCCO2)nn1 [Compound I-166]	6.00 to 6.52	≥ 6.52	A (IC50 of >1.0-fold relative to Control Compound)	> 75		
Cc1cc(C#CCN2CC(C)(C)C2)cnc1-c1cn(CC2OCC(C)(C)CO2)nn1 [Compound I-596]	6.00 to 6.52	≥ 6.52	A (IC50 of >1.0-fold relative to Control Compound)	> 75		
Cc1cc(C#CCNC(=O)OC(C)(C)C)ccc1-c1cn(CC2CCCCO2)nn1 (centres unmarked) [Compound I-177]	5.52 to 6.00	≥ 6.52	A (IC50 of >1.0-fold relative to Control Compound)	50 to 75		
Cc1ccc(C#CC2CC2)cc1-c1cn(CC2CCCCO2)nn1 (centres unmarked) [Compound I-65]	5.52 to 6.00	5.52 to 6.00	C (IC50≤0.5-fold relative to Control Compound)		> 75	
COC(c1cn(CC2CCCCO2)nn1)c1cc(C#CC2CC2)ccc1C (centres unmarked) [Compound I-417]	6.00 to 6.52	≥ 6.52	A (IC50 of >1.0-fold relative to Control Compound)			> 75
CO[C@@H](c1cn(C[C@H]2CCCCO2)nn1)c1cc(C#CC2CC2)ccc1C [Compound I-510]	6.00 to 6.52	≥ 6.52	B (IC50 of >0.5-≤1.0-fold relative to Control Compound)			50 to 75
Cc1cc(C#CC2CC2)ccc1-c1cn(CC2CCC(C)(C)CO2)nn1 (centres unmarked) [Compound I-455]	5.52 to 6.00	≥ 6.52	B (IC50 of >0.5-≤1.0-fold relative to Control Compound)	> 75		
Cc1cc(N2CCN(Cc3ccccn3)CC2)ccc1-c1cn(C[C@@H]2CCC(F)(F)CO2)nn1 (stereo in doubt) [Compound I-636]	≥ 6.52	≥ 6.52	A (IC50 of >1.0-fold relative to Control Compound)	> 75		
CC(C)Oc1cc(C#CC2CC2)cnc1-c1cn(CC2CCCCO2)nn1 (centres unmarked) [Compound I-478]	≥ 6.52	≥ 6.52	B (IC50 of >0.5-≤1.0-fold relative to Control Compound)	> 75		
